In PubChem BioAssay AID342 (DTP/NCI, 2004):
Where “and” joins values, the source holds several entries; their conditions need not be identical. Identical values can stand only once.

System: Swiss mice, Sarcoma 180 sc, mean tumor weight T/C
Experiment: NCI In Vivo Anticancer Drug Screen. Data for tumor model Sarcoma 180 (subcutaneous) in Swiss mice
Conditions: endpoint: mean tumor weight, higher = larger tumour
Outline: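 Antitumor activity is assessed in mice with transplantable tumors. Treated (T) and vehicle control (C) groups are compared on survival or tumor size.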

[1] = dose: 125.0 mg/kg/injection, schedule: Q01DX007 (ip), vehicle: saline
[2] = dose: 150.0 mg/kg/injection, schedule: Q01DX007 (ip), vehicle: saline
[3] = dose: 62.0 mg/kg/injection, schedule: Q01DX007 (ip), vehicle: other

CNC=O
T/C (dose: 19.87 mg/kg/injection, schedule: Q#A X014 (ip), vehicle: carboxymethylcellulose (CMC)): 107 % of control | T/C (dose: 39.75 mg/kg/injection, schedule: Q#A X014 (ip), vehicle: carboxymethylcellulose (CMC)): 67 % of control | T/C (dose: 79.5 mg/kg/injection, schedule: Q#A X014 (ip), vehicle: carboxymethylcellulose (CMC)): 23 % of control | T/C (dose: 100.0 mg/kg/injection, schedule: Q#A X014 (ip), vehicle: saline): 20 % of control | T/C (dose: 120.0 mg/kg/injection, schedule: Q01DX007 (ip), vehicle: carboxymethylcellulose (CMC)): 19 % of control | T/C [1]: 8 % of control and 12 % of control | T/C (dose: 150.0 mg/kg/injection, schedule: Q01DX007 (ip), vehicle: carboxymethylcellulose (CMC)): 16 % of control | T/C [2]: 4 % of control and 7 % of control | T/C (dose: 159.0 mg/kg/injection, schedule: Q#A X014 (ip), vehicle: carboxymethylcellulose (CMC)): 8 % of control | T/C (dose: 175.0 mg/kg/injection, schedule: Q01DX007 (ip), vehicle: saline): 1 % of control and 5 % of control | T/C (dose: 200.0 mg/kg/injection, schedule: Q01DX007 (ip), vehicle: carboxymethylcellulose (CMC)): 9 % of control | T/C (dose: 200.0 mg/kg/injection, schedule: Q01DX007 (ip), vehicle: saline): 2 % of control and 3 % of control and 26 % of control | T/C (dose: 225.0 mg/kg/injection, schedule: Q01DX007 (ip), vehicle: saline): 1 % of control and 3 % of control | T/C (dose: 250.0 mg/kg/injection, schedule: Q01DX007 (ip), vehicle: saline): 1 % of control and 2 % of control | T/C (dose: 275.0 mg/kg/injection, schedule: Q01DX007 (ip), vehicle: saline): 1 % of control | T/C (dose: 325.0 mg/kg/injection, schedule: Q01DX007 (ip), vehicle: saline): 1 % of control | T/C (dose: 400.0 mg/kg/injection, schedule: Q01DX007 (ip), vehicle: saline): 24 % of control

CC(C)(C#N)C#N
T/C [1]: 30 % of control | T/C (dose: 187.0 mg/kg/injection, schedule: Q01DX007 (ip), vehicle: saline): 36 % of control | T/C (dose: 375.0 mg/kg/injection, schedule: Q01DX007 (ip), vehicle: saline): 52 % of control and 58 % of control

NC1=CC(=O)c2ccccc2C1=O
T/C (dose: 31.0 mg/kg/injection, schedule: Q01DX007 (ip), vehicle: other): 73 % of control | T/C [3]: 83 % of control

O=CN(O)CC(=O)O
T/C (dose: 62.5 mg/kg/injection, schedule: Q01DX007 (ip), vehicle: carboxymethylcellulose (CMC)): 105 % of control | T/C (dose: 250.0 mg/kg/injection, schedule: Q01DX007 (ip), vehicle: carboxymethylcellulose (CMC)): 83 % of control | T/C (dose: 500.0 mg/kg/injection, schedule: Q01DX007 (ip), vehicle: carboxymethylcellulose (CMC)): 84 % of control | T/C (dose: 750.0 mg/kg/injection, schedule: Q01DX007 (ip), vehicle: carboxymethylcellulose (CMC)): 62 % of control | T/C (dose: 1000.0 mg/kg/injection, schedule: Q01DX007 (ip), vehicle: carboxymethylcellulose (CMC)): 61 % of control

Cc1cc(C)c(N)c(C)c1N
T/C (dose: 187.5 mg/kg/injection, schedule: Q#A X014 (ip), vehicle: methylcellulose (MC)): 48 % of control

O=C1c2ccccc2-c2c3c(cc4ccnc1c24)OCO3
T/C (dose: 45.0 mg/kg/injection, schedule: Q01DX007 (ip), vehicle: saline): 81 % of control | T/C (dose: 65.0 mg/kg/injection, schedule: Q01DX007 (ip), vehicle: saline): 67 % of control | T/C (dose: 100.0 mg/kg/injection, schedule: Q01DX007 (ip), vehicle: saline): 75 % of control | T/C [2]: 47 % of control

CN(C)/C=N/c1nccs1
T/C (dose: 83.0 mg/kg/injection, schedule: Q01DX007 (ip), vehicle: saline): 58 % of control and 70 % of control | T/C [1]: 34 % of control and 43 % of control

SCc1ccccn1
T/C [3]: 117 % of control | T/C (dose: 125.0 mg/kg/injection, schedule: Q01DX007 (ip), vehicle: other): 103 % of control

CCCCCCCCCCCCCCCCCCNC(=S)N/N=C/c1ccc(Cl)cc1Cl
T/C (dose: 65.0 mg/kg/injection, schedule: Q#A X014 (ip), vehicle: methylcellulose (MC)): 35 % of control and 53 % of control

CNCc1ccccc1
T/C (dose: 146.5 mg/kg/injection, schedule: Q01DX007 (ip), vehicle: carboxymethylcellulose (CMC)): 91 % of control
